How the values were obtained:
[1] = molecular target: Platelet-activating factor receptor (Homo sapiens) (UniProt P25105); assay: Inhibition of Platelet Activating Factor (PAF) at 10 µM in the Eurofins-Panlabs radioligand binding assay (Eurofins_assay_265010); conditions: Compound concentration 10.0 uM
[2] = molecular target: C-C chemokine receptor type 1 (Homo sapiens) (UniProt P32246); assay: Chemokine CCR1 Eurofins-Panlabs radioligand binding assay; conditions: Compound concentration 10.0 uM
[3] = molecular target: Phosphodiesterase 3 (Homo sapiens) (UniProt Q14432+Q13370); assay: Inhibition of Phosphodiesterase PDE3 at compound concentration of 10.0 uM in the Eurofins-Panlabs enzyme assay (Eurofins_assay_152000); type: protein assay; design: substrate with concentration 1.01 uM [3H] cAMP + cAMP, incubation time 20 min, incubation temperature 25 C; conditions: Compound concentration […]
[4] = molecular target: Tyrosine 3-monooxygenase (Homo sapiens) (UniProt P07101); assay: Tyrosine Hydroxylase Eurofins-Panlabs enzyme assay; design: substrate with concentration; conditions: Rattus norvegicus; Compound concentration 10.0 uM
[5] = molecular target: Melanocortin receptor 3 (Homo sapiens) (UniProt P41968); assay: Inhibition of Melanocortin MC3 at 10 µM in the Eurofins-Panlabs radioligand binding assay (Eurofins_assay_251300); design: ligand concentration 0.035 nM; conditions: Compound concentration 10.0 uM
[6] = molecular target: D(1B) dopamine receptor (Homo sapiens) (UniProt P21918); conditions: Compound concentration 10.0 uM
[7] = molecular target: Beta-1 adrenergic receptor (Homo sapiens) (UniProt P08588); conditions: Compound concentration 10.0 uM
[8] = molecular target: Estrogen receptor (Homo sapiens) (UniProt P03372); conditions: Compound concentration 10.0 uM
[9] = molecular target: Somatostatin receptor type 5 (Homo sapiens) (UniProt P35346); assay: Somatostatin sst5 Eurofins-Panlabs radioligand binding assay; conditions: Compound concentration 10.0 uM
[10] = molecular target: Peroxisome proliferator-activated receptor gamma (Homo sapiens) (UniProt P37231); assay: PPARgamma Eurofins-Panlabs radioligand binding assay; design: ligand concentration 5 nM, non-specific ligand with concentration 0.5 µM L-797773, incubation time 18 h, incubation temperature 15 °C; conditions: Compound concentration 10.0 uM
[11] = molecular target: T1, 5-hydroxytryptamine receptor 2C (Homo sapiens) (UniProt P28335); conditions: Compound concentration 10.0 uM
T1 sequence (whole entry): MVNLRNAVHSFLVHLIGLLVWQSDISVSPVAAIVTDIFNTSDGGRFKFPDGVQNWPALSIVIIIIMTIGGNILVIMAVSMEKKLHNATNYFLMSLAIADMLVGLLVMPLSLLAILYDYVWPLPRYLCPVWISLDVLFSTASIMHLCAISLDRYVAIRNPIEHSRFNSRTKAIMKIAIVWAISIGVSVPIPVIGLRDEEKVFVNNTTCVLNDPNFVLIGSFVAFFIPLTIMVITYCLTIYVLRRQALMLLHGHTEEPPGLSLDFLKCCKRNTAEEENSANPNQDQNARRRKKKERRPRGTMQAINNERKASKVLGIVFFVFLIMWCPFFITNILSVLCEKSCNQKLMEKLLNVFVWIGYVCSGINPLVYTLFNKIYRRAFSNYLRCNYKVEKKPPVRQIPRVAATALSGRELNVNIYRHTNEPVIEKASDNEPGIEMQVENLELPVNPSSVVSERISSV

[12] = species on record: Rattus norvegicus; assay: Inhibition of Glutamate, NMDA, Phencyclidine at 10 µM in the Eurofins-Panlabs radioligand binding assay (Eurofins_assay_233000); type: protein-complex assay; conditions: Compound concentration 10.0 uM
[13] = molecular target: D(1A) dopamine receptor (Homo sapiens) (UniProt P21728); conditions: Compound concentration 10.0 uM
[14] = molecular target: Galanin receptor type 1 (Homo sapiens) (UniProt P47211); assay: Galanin GAL1 Eurofins-Panlabs radioligand binding assay; conditions: Compound concentration 10.0 uM
[15] = molecular target: GABA-A receptor; alpha-5/beta-3/gamma-2 (Homo sapiens) (UniProt P18507+P28472+P31644); assay: GABA-alpha5beta3gamma2 Eurofins-Panlabs radioligand binding assay; type: protein-complex assay; design: ligand concentration 1 nM; conditions: Compound concentration 10.0 uM
[16] = species on record: Rattus norvegicus; assay: Serotonin (5-Hydroxytryptamine) 5-HT1, Non-Selective Eurofins-Panlabs radioligand binding assay; type: protein assay; conditions: Compound concentration 10.0 uM
[17] = molecular target: Histamine H4 receptor (Homo sapiens) (UniProt Q9H3N8); assay: Histamine H4 Eurofins-Panlabs radioligand binding assay; conditions: Compound concentration 10.0 uM
[18] = molecular target: Delta-type opioid receptor (Homo sapiens) (UniProt P41143); assay: Opiate delta (OP1, DOP) Eurofins-Panlabs radioligand binding assay; conditions: Compound concentration 10.0 uM
[19] = molecular target: Tyrosine-protein phosphatase non-receptor type 2 (Homo sapiens, UniProt P17706); assay: Panlabs assay; design: compound concentration 10 uM
[20] = molecular target: Phosphatidylinositol 4,5-bisphosphate 3-kinase catalytic subunit beta isoform (Homo sapiens) (UniProt P42338); conditions: Compound concentration 1000.0 nM
[21] = molecular target: 5-hydroxytryptamine receptor 6 (Homo sapiens) (UniProt P50406); conditions: Compound concentration 10.0 uM

Estrogen receptor (Homo sapiens), sequence (P03372 whole entry): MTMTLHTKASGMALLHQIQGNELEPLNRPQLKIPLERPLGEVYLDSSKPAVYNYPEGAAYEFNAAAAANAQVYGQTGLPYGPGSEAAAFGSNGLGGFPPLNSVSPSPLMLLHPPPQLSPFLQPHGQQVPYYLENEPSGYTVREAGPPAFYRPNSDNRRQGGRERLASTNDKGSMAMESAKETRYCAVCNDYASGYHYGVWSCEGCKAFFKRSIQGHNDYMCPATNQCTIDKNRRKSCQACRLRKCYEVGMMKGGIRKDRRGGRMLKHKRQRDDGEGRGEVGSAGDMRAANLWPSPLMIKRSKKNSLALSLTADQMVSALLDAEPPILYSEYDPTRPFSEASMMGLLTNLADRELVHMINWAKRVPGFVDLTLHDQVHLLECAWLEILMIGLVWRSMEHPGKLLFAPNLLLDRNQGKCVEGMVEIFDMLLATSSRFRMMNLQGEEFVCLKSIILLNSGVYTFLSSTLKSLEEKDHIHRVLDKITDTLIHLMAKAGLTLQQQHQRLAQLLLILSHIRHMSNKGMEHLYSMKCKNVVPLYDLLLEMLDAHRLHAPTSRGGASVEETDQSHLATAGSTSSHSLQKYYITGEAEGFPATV
Tyrosine 3-monooxygenase (Homo sapiens), sequence (P07101 whole entry): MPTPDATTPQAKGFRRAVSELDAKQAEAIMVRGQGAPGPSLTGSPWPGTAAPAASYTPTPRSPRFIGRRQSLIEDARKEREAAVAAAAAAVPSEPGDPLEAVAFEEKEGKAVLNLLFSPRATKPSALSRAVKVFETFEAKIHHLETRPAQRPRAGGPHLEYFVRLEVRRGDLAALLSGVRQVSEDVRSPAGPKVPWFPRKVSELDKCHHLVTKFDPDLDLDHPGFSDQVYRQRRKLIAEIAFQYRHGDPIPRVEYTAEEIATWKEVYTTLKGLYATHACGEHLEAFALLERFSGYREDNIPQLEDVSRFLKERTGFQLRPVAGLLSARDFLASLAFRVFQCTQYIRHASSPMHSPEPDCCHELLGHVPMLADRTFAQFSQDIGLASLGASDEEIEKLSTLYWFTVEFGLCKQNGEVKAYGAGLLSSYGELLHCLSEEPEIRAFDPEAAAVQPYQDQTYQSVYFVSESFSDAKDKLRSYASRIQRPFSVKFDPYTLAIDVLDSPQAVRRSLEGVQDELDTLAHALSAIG
Tyrosine-protein phosphatase non-receptor type 2, sequence (P17706 whole entry, canonical isoform): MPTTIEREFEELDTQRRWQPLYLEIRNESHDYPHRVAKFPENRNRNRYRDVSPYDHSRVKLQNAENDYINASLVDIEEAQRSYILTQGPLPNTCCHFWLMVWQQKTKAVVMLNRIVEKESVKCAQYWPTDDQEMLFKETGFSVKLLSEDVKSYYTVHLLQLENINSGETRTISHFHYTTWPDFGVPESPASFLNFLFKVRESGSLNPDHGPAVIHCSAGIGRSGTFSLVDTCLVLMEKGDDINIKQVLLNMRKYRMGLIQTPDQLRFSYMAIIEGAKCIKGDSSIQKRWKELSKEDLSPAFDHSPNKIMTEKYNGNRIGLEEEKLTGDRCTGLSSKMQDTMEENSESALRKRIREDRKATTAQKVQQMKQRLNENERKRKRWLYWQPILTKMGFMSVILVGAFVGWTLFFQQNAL
D(1B) dopamine receptor (Homo sapiens), sequence (P21918 whole entry): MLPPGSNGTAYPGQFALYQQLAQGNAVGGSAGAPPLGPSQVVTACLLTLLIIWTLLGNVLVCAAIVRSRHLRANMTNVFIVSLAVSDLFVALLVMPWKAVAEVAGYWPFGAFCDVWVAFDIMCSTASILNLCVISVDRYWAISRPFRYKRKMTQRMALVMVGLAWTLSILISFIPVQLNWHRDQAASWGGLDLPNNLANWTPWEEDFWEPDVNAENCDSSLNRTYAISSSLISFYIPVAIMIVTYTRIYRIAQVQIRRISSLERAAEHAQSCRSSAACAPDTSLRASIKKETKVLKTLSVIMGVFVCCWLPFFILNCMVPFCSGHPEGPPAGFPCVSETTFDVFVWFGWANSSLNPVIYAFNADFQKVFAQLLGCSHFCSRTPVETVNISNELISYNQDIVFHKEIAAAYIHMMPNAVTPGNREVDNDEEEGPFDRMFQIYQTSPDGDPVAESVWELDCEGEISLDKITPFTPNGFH
Galanin receptor type 1 (Homo sapiens), sequence (P47211 whole entry): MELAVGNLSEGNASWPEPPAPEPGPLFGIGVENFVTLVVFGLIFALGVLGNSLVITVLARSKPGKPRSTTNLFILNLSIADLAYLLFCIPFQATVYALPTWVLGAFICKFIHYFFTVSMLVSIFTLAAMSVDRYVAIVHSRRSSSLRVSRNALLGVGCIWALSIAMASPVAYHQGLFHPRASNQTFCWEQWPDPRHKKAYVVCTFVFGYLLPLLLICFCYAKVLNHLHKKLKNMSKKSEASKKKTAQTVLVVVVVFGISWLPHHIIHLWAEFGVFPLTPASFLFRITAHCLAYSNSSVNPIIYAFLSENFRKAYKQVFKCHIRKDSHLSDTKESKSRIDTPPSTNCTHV
Histamine H4 receptor (Homo sapiens), sequence (Q9H3N8 whole entry): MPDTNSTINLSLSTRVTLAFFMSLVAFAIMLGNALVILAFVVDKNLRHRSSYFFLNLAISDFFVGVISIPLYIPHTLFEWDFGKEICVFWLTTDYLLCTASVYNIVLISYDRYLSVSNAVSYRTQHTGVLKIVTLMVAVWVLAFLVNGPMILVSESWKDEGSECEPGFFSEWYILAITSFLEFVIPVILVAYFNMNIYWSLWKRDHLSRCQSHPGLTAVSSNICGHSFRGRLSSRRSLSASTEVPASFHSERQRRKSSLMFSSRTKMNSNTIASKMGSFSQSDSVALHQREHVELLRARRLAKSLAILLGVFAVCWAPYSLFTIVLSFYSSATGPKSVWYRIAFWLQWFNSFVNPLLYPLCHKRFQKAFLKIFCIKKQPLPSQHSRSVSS
Phosphatidylinositol 4,5-bisphosphate 3-kinase catalytic subunit beta isoform (Homo sapiens), sequence (P42338 whole entry, looked up, canonical isoform): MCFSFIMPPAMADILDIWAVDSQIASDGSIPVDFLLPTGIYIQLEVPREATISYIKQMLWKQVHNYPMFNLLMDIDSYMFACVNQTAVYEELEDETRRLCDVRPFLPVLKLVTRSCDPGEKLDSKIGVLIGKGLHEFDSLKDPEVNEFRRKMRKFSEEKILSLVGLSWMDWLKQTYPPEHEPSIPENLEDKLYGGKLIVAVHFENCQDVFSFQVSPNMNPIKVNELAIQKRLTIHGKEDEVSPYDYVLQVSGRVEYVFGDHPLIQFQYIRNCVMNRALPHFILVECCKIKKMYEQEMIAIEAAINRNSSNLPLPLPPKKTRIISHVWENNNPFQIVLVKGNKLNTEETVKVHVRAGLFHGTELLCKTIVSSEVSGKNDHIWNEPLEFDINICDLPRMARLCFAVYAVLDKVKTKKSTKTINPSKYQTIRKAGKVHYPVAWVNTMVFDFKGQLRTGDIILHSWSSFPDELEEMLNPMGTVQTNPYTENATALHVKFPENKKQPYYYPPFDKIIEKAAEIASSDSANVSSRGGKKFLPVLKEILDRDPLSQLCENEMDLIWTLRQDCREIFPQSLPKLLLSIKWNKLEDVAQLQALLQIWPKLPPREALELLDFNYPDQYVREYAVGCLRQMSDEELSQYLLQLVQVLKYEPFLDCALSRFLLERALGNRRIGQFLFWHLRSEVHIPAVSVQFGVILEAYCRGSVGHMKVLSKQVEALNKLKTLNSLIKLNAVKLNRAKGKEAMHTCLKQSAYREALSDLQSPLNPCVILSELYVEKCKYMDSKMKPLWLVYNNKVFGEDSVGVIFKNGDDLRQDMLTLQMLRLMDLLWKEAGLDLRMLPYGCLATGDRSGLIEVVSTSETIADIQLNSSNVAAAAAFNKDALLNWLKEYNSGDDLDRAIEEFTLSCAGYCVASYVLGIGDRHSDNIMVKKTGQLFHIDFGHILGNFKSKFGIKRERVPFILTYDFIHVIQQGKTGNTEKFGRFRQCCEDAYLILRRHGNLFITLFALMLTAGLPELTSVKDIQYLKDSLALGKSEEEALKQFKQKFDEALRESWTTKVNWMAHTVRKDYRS
D(1A) dopamine receptor (Homo sapiens), sequence (P21728 whole entry): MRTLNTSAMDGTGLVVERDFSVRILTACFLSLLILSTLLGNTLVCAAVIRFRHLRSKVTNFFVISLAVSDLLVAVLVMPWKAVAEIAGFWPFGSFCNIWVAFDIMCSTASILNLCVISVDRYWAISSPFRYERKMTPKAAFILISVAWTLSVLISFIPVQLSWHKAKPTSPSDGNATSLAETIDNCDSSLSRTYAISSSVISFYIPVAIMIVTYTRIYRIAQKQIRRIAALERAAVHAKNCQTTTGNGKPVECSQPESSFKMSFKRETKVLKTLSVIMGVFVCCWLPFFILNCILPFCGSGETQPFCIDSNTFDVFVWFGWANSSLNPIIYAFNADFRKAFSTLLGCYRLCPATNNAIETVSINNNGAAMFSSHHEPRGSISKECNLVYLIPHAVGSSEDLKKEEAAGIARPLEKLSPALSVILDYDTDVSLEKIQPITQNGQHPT
Peroxisome proliferator-activated receptor gamma (Homo sapiens), sequence (P37231 whole entry): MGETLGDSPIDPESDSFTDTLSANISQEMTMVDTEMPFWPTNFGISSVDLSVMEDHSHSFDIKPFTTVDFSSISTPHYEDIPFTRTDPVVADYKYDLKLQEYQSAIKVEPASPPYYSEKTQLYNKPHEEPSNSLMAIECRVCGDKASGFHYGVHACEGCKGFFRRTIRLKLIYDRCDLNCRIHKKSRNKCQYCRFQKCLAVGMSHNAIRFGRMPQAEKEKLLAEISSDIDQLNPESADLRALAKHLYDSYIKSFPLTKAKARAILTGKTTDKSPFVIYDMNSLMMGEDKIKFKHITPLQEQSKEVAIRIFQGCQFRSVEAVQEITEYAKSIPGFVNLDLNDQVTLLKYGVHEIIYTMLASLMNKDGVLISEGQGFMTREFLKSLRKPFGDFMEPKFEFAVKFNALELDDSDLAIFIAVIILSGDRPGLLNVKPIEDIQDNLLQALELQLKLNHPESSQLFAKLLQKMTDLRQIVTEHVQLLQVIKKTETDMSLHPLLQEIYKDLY

With N#CC1(c2ccccn2)CCN(Cc2cc(C(=O)O)c(=O)n3ccccc23)CC1 [MSD-M1PAM] the inhibition [1] was -5%, the inhibition [2] was 8% and the inhibition [3] was 1%. It also gave an inhibition [4] of -2%, an inhibition [5] of 1% and an inhibition [6] of -2.87%. It also gave an inhibition [7] of 2%, an inhibition [8] of -1% and an inhibition [9] of -5%. For the same compound, the inhibition [10] was 10%, the inhibition [11] was -8% and the inhibition [12] was 11%. The inhibition [13] was 6%, the inhibition [14] was 2% and the inhibition [15] was 14%. The inhibition [16] was 5%, the inhibition [17] was 11% and the inhibition [18] was 19%. The IC50 [19] was 10 µM (not active).
N#CC1(c2ccccn2)CCN(Cc2cc(C(=O)N3CCCC3)c(=O)n3ccccc23)CC1 gave a residual activity [20] of 100% and an inhibition [21] of 2.79%.
